Test results from US20240254135A1, “POLYPHENOL COMPOUNDS” (Epirium Bio Inc., priority 2022, published 2024).

Test: Pharmacokinetics: quantitative determination in mice brains (LCMS)
Assay type: in vivo, C57BL/6 Mice
Conditions: mice brain, 10 mg/kg PO single dose, 10% NMP vehicle; for Tmax: C57BL/6, mouse
Experimental: C57BL/6 Mice, Age 7-9 weeks, body weight range 20-25 g were used. The mice were fasted overnight. Mice were dosed once a day for a single day at 10 mg/kg, 10 mg/kg. 6 time-points were used for whole blood. 10% NMP was used as a vehicle. 9 animals were used per treatment, with three groups of three animals each. Group 1 had time points at 15 and 60 minutes, Group 2 had time points at 30 and 120 minutes, and Group 3 had time points at 90 and 240 minutes. An Oral (PO) route was used. Plasma and brain samples were collected (brain sample collected at terminal time point). Plasma was collected through the centrifugation of whole blood at 10,000 rpm for 10 minutes at 4° C. Samples were stored at −80° C. until processing.
1.00 mg/mL in 100% MeOH PP vials (prepared at RT yellow light) at 2-8° C. were used as stock solution. 12.22-50000 ng/mL using 80% MeOH PP vials (prepared at RT yellow light) at 2-8° C. were used as working solution. 0.48-2000 ng/ml (prepared at RT yellow light) was used for the curve range. For Compounds 75b and 78a, 1.00 mg/mL of Compound 79 in 100% methanol Ria vials (Prepared at RT yellow light) was used as IS stock solution, and 60 ng/ml of Compound 79 in 80% methanol (Prepared at RT yellow light) was used as IS working solution. For Compound 76b, 1.00 mg/mL of Compound 44 in 100% methanol Ria vials (Prepared at RT yellow light) was used as IS stock solution, and 60 ng/ml of Compound 44 in 80% methanol (Prepared at RT yellow light) was used as IS working solution. A linear, 1/x2 fit type was used. The injection volume was 15 μL. Mobile Phase A was 0.1% Formic Acid in water at room temperature. Mobile Phase B was 100% methanol at room temperature. R0 wash solution was 80% methanol at room temperature. R^3 wash solution was IPA/MeOH/ACN/water (1:1:1:1) at room temperature. The column was Agilent Eclipse 50*2.1 mm 1.8 μm and the instrument was Shimadzu LC-40 UPLC and AB Sciez 6500+ with LCMS002.
For Compound 75b, 100 mg of brain tissue were weighed, 400 μL of Ice cold PBS was added, and the sample was homogenated using a polytron homogenizer. Before starting the experiment the blade was cleaned with NS, Methanol, Methanol:Water (50:50) followed by NS. Using a pipette with Methanol-rinsed pipette tips, 50 μL of each sample (calibration curve sample, QC samples and blank matrix) was aliquot to labeled 12×75-mm glass tubes. Using Methanol-rinsed pipette tips, 5.0 μL of IS of conc. 60 ng (Compound 79) was added to each standard and samples except Blank. All tubes were mixed on a multi-tube vortex for approximately 30 seconds. 1 ml of Ethyl Acetate was added. All tubes were mixed on a multi-tube vortex for approximately 5 minutes then centrifuged for 10 min at 5,000 rpm, 4° C. The sample was kept in methanol containing dry ice for few seconds to freeze the Aqueous layer (flash freeze method). The upper organic layer was poured from the frozen tubes into the labeled 12×75-mm glass tubes then evaporated to dryness under nitrogen using Liquid Evaporator (30° C., −15 psi, ˜ 10 mins). 200 μl of reconstitution solution (10 mM Ammonium Formate:MeOH (40:60 v/v) was added into each tube, which was then vortexed for 30 seconds and transferred to amber glass injection vials for injection. At the terminal time points, animals were euthanized after blood sample collection. Their skulls were opened and whole brains were separated and collected in previously labeled tubes. The tubes were then immediately transferred into liquid nitrogen container for snap freezing. Later the samples were stored at −80° C.
For Compounds 76b and 78a, 100 mg of brain tissue were weighed, 400 μL of Ice cold PBS was added, and the samples were homogenated using a polytron homogenizer. Before starting the experiment the blade was cleaned with NS, Methanol, Methanol:Water (50:50) followed by NS. […]

Tmax [h]	AUC0-4 [hr*g/tissue]	SMILES
1	238.5399	COc1cc(C2Oc3ccccc3CC2O)ccc1F (single isomer, unassigned) [Compound 75b, 2-(4-fluoro-3-methoxyphenyl)chroman-3-ol]
1	5.993	Oc1cc(O)c2c(c1)OC(c1ccc(O)c(F)c1)C(O)C2 (single isomer, unassigned) [Compound 76b, 2-(3-fluoro-4-hydroxyphenyl)chromane-3,5,7-triol]
1	29.135	Oc1cc(O)c2c(c1)OC(c1ccccc1)C(O)C2 (single isomer, unassigned) [Compound 78a, 2-phenylchromane-3,5,7-triol]
